# From paper PMC5571359, “Screening the Medicines for Malaria Venture Pathogen Box across Multiple Pathogens Reclassifies Starting Points for Open-Source Drug Discovery” (Antimicrobial Agents and Chemotherapy, 2017)
# pEC50, pIC50: −log10 of the molar value. Read-outs that look alike come from different tables or passages of the source.
# Columns and labels:
# [1] = test system: T. b. brucei 427 bloodstream trypanosomes; test: T. b. brucei resazurin viability assay; type: cell-based, Trypanosoma brucei brucei; conditions: Trypanosoma brucei; for inhibition at 20 µM: read-out: percent inhibition at the top screening dose, T. brucei brucei
# [2] = test system: NF54-pfs16-LUC-GFP stage IV gametocytes; test: Plasmodium falciparum late stage gametocyte (LSG) image-based assay; type: cell-based; conditions: for pIC50 / inhibition at 20 µM / IC50: Plasmodium falciparum; for pIC50: NF54, read-out: IC50 P. falciparum NF54 LSG, reference compound set, 11-point dose response, IA = inactive at 20 μM; for inhibition at 20 µM: NF54, read-out: percent inhibition at the top screening dose, P. falciparum NF54 LSG; for IC50: NF54, read-out: Pf Stage IV GAMS Discovery Biology IC50 µM, stage IV gametocytes, Discovery Biology
# [3] = test system: T. cruzi intracellular amastigotes; test: Intracellular anti-Trypanosoma cruzi image-based assay (amastigotes); type: cell-based; conditions: Trypanosoma cruzi; for Emax: read-out: T. cruzi Emax (maximal % inhibition plateau in dose response curve)
# [4] = test system: L. donovani MHOM/IN/80/DD8 intracellular amastigotes; test: Leishmania donovani intracellular amastigote assay in THP-1 cells; type: cell-based; conditions: for pIC50 / inhibition at 20 µM / IC50: Leishmania donovani; for inhibition at 20 µM / IC50: THP-1; for IC50: intracellular amastigotes, Discovery Biology, some values carry an asterisk, read-out: L, donovani Discovery Biology IC50 µM
# [5] = test system: Plasmodium falciparum 3D7 asexual blood stage; test: microbe, parasite or virus in culture; conditions: for inhibition at 20 µM: 3D7, read-out: percent inhibition at the top screening dose, P. falciparum 3D7 ABS; for IC50: 3D7, read-out: Pf 3D7 Discovery Biology IC50 µM, P. falciparum 3D7 asexual blood stage, Discovery Biology
# [6] = test system: 3T3 host cells; test: T. cruzi assay, activity against 3T3 host cells; type: cell-based; conditions: reference compound set; IA = inactive at 16.4 μM
# Method: page 4: […] Puromycin, 71 chloroquine, artesunate, DHA, pyronaridine and pyrimethamine were also tested in 72 IC50 format to act as internal reference compounds. 73 74 Intracellular anti-Trypanosoma cruzi Assay Protocol 75 The host cell cytoplasm, in which the parasite resides, is identified by the fluorescent 76 marker, HCS CellMask Green. Parasite and host cell nuclei are detected with the 77 fluorescent DNA intercalator, Hoechst 33342. The Opera® High Content Screening 78 System is used to take images of wells and a spot detection algorithm is used to 79 identify parasites within the cytoplasm. 80 81 Briefly, 1x 10^3 3T3 cells were added to collagen coated 384-well plates and following 82 24 hrs incubation at 37 °C, a multiplicity of infection (MOI) of 5:1 parasite: host cells 83 were added to the plate using a Multidrop liquid handler. Following additional 24 hrs 84 incubation, extracellular parasites were washed from the plates and RPMI with no […] 86 added to all wells. The final volume of media in the primary screening assay, before 87 addition of compound, was modified slightly to 55 µL. One µL of compounds, provided 88 by Compounds Australia, were diluted by the addition of 25 µL of sterile water. This […] 91 donovani). Five microliters of this dilution was added to assay plates. The final […] The final concentrations of compounds in the […] Following 48 hrs incubation in the presence 97 of compounds, wells were fixed, stained and read on the Opera® High Content 98 Screening System to assess compound activity. 99 The Z′-factor, as a measure of assay reproducibility, was determined from a plate […] The positive control used to calculate activity against […] To 103 assess the sensitivity of the T. cruzi assay, activity of the reference compounds 104 benznidazole, NFX, posaconazole and puromycin were determined. […] 108 resazurin as a measure of parasite viability. 109 T. b. brucei trypanosomes were cultured in vitro in HM1-9 medium supplemented with […] Fifty-five µL of logarithmic phase […] 112 incubated for 24 hrs at 37°C /5% CO2. Compounds were subsequently added to the […] Following […] 116 37°C / 5% CO2 followed by 22 hrs at room temperature. […] The percent
# [7] = test system: P. falciparum ABS; conditions: cited from earlier work; for pEC50: ChEMBL Data, TCMDC, read-out: TCMDC (ref 93) EX50; for pIC50: Pf 3D7, ref Pathogen Box supporting information, read-out: Pf 3D7 Pbox IC50
# [8] = test system: liver stage; conditions: liver stage; ref Pathogen Box supporting information; read-out: LIVER STAGE Pbox IC50; cited from earlier work
# [9] = test system: P. falciparum stage V gametocytes; conditions: cited from earlier work; for pIC50: stage V gametocytes, ref Pathogen Box supporting information, read-out: PF stage V GAMS PBox IC50
# [10] = test system: HEK293 cells; test: HEK293 resazurin cell cytotoxicity assay; conditions: Homo sapiens
# [11] = test system: HepG2; conditions: read-out: HepG2 PBox CC50 µM; HepG2 CC50; ref Pathogen Box supporting information; cited from earlier work
# [12] = reference compound set, IA = inactive at 20 μM, read-out: IC50 T. brucei brucei trypomastigotes
# [13] = reference compound set, IA = inactive at 16.4 μM, read-out: IC50 T. cruzi intracellular amastigotes
# [14] = THP-1, read-out: IC50 L. donovani n = 1, reference compound set, first test, IA = inactive at 20 μM
# [15] = THP-1, read-out: IC50 L. donovani n = 2, reference compound set, second test, IA = inactive at 20 μM
# [16] = 3D7, read-out: IC50 P. falciparum 3D7 ABS
# [17] = reference compound set, first test, 20 μM, read-out: percent inhibition at the top screening dose, L. donovani n = 1
# [18] = PBox compounds, read-out: IC50 T. brucei brucei (Discovery Biology)
SMILES,"pIC50 [1, 12]",pIC50 [2],"pIC50 [3, 13]","pIC50 [4, 14]","pIC50 [4, 15]","pIC50 [5, 16]",pIC50 [6],also measured
"NCC[C@H](O)C(=O)N[C@@H]1C[C@H](N)[C@@H](O[C@H]2O[C@H](CN)[C@@H](O)[C@H](O)[C@H]2O)[C@H](O)[C@H]1O[C@H]1O[C@H](CO)[C@@H](O)[C@H](N)[C@H]1O [Amikacin, reference compound]",< 4.70,< 4.70,< 4.79,< 4.70,< 4.70,< 4.70,< 4.79,
C[C@@H]1[C@H](O)[C@@H](C)/C=C/C=C/C=C/C=C/C=C/C=C/C=C/[C@H](O[C@@H]2O[C@H](C)[C@@H](O)[C@H](N)[C@@H]2O)C[C@@H]2O[C@](O)(C[C@@H](O)C[C@@H](O)[C@H](O)CC[C@@H](O)C[C@@H](O)CC(=O)O[C@H]1C)C[C@H](O)[C@H]2C(=O)O [Amphotericin B],< 4.70,< 4.70,< 4.79,,< 4.70,,< 4.79,"pIC50 ([4]; THP-1, in-house control stock, not the PBox sample, two tests, read-out: IC50 of standard in-house assay control, L. donovani): 6.39; inhibition at 20 µM [4, 17]: 100%; activity against L. donovani at 20 μM ([4]; PBox sample, 20 μM): not active; inhibition at 20 µM [5]: 87%"
"COc1nc2ccc(Br)cc2cc1[C@@H](c1ccccc1)[C@@](O)(CCN(C)C)c1cccc2ccccc12 [Bedaquiline, reference compound]",,,< 4.79,< 4.70,< 4.70,,< 4.79,inhibition at 20 µM ([1]; reference compound set): 59%; inhibition at 20 µM [2]: 75%; inhibition at 20 µM [5]: 91%
"O=C(Cn1ccnc1[N+](=O)[O-])NCc1ccccc1 [Benznidazole, reference compound]",< 4.70,< 4.70,,< 4.70,< 4.70,< 4.70,< 4.79,"inhibition at 16.4 µM ([3]; reference compound set, 16.4 μM, read-out: percent inhibition at the top screening dose, T. cruzi intracellular amastigotes): 94%"
"CC(C)/N=c1\cc2n(-c3ccc(Cl)cc3)c3ccccc3nc-2cc1Nc1ccc(Cl)cc1 [Clofazimine, reference compound]",< 4.70,< 4.70,< 4.79,< 4.70,< 4.70,,< 4.79,inhibition at 20 µM [5]: 84%
"CCN(CC)C(=O)N1CCN(C)CC1 [Diethylcarbamazine, reference compound]",< 4.70,< 4.70,< 4.79,< 4.70,< 4.70,< 4.70,< 4.79,
"C[C@H]1c2cccc(O)c2C(=O)C2=C(O)[C@]3(O)C(=O)C(C(N)=O)=C(O)[C@@H](N(C)C)[C@@H]3[C@@H](O)[C@@H]21 [Doxycycline, reference compound]",< 4.70,,< 4.79,< 4.70,< 4.70,,< 4.79,inhibition at 20 µM [2]: 77%; inhibition at 20 µM [5]: 90%
"CC[C@@H](CO)NCCN[C@@H](CC)CO [Ethambutol, reference compound]",< 4.70,,< 4.79,< 4.70,< 4.70,< 4.70,< 4.79,inhibition at 20 µM [2]: 42%
"CC(=O)NC[C@H]1CN(c2ccc(N3CCOCC3)c(F)c2)C(=O)O1 [Linezolid, reference compound]",< 4.70,< 4.70,< 4.79,< 4.70,< 4.70,< 4.70,< 4.79,
CN1CCC(NCc2cccc(-c3ccc(S(=O)(=O)NCc4ccccc4)cc3)c2)CC1 [MMV022029],,,,,,,,"pIC50 [1, 18]: 5.62; IC50 [2]: 4.04 µM; pEC50 [7]: 6.16; pIC50 [7]: 6.09; pIC50 [8]: 5.34; pIC50 [9]: 5.85; inhibition at 20 µM ([10]; HEK293, read-out: HEK % Inhibition 20uM/IC50 Discovery Biology): 100%; IC50 [4]: 5.03 µM; IC50 [5]: 0.69 µM; CC50 [11]: > 10 µM"
O=C(Nc1ccc(N2CCNCC2)cc1)c1ccn2ncc(-c3cccc(Cl)c3)c2n1 [MMV022478],,,,,,,,"pIC50 [1, 18]: 5.84; activity in the Discovery Biology stage IV gametocyte (LSG) assay [2]: demonstrate activity; IC50 [2]: 2.89 µM; pEC50 [7]: 6.04; pIC50 [7]: 6.11; pIC50 ([3]; intracellular amastigotes, Discovery Biology, read-out: T cruzi Discovery Biology IC50): 5.33; pIC50 [8]: < 5.00; activity against gametocytes (stage V), PBox supporting information ([9]; ref Pbox supporting information): demonstrate activity; pIC50 [9]: 6.21; IC50 ([10]; HEK293, read-out: HEK % Discovery Biology IC50 uM): 8.11 µM; IC50 [4]: 5.02 µM; IC50 [5]: 1.29 µM; CC50 [11]: > 10 µM"
"COC(=O)Nc1nc2ccc(C(=O)c3ccccc3)cc2[nH]1 [Mebendazole, reference compound]",< 4.70,< 4.70,< 4.79,< 4.70,< 4.70,< 4.70,< 4.79,
"OC(c1cc(C(F)(F)F)nc2c(C(F)(F)F)cccc12)C1CCCCN1 (stereo not drawn) [Mefloquine, reference compound]",6.48,5.25,5.33,5.29,5.18,,< 4.79,"Emax ([3]; reference compound set): 99%; pIC50 ([5]; 3D7, read-out: IC50 P. falciparum 3D7 ABS, reference compound set, 11-point dose response, IA = inactive at 20 μM): > 7.80"
"CCCCCCCCCCCCCCCCOP(=O)([O-])OCC[N+](C)(C)C [Miltefosine, reference compound]",< 4.70,< 4.70,< 4.79,4.93,5.65,< 4.70,< 4.79,
"CC1CS(=O)(=O)CCN1/N=C/c1ccc([N+](=O)[O-])o1 (stereo not drawn) [Nifurtimox, reference compound]",5.27,,5.85,< 4.70,< 4.70,< 4.70,< 4.79,"inhibition at 20 µM [2]: 39%; pIC50 ([3]; in-house control stock, not the PBox sample, read-out: IC50 of standard in-house assay control, T. cruzi amastigotes): 5.91; Emax ([3]; reference compound set): 100%"
"CC(=O)Oc1ccccc1C(=O)Nc1ncc([N+](=O)[O-])s1 [Nitazoxanide, reference compound]",,< 4.70,< 4.79,,,< 4.70,< 4.79,"inhibition at 20 µM ([1]; reference compound set): 41%; inhibition at 20 µM [4, 17]: 44%; inhibition at 20 µM ([4]; reference compound set, second test, 20 μM, read-out: percent inhibition at the top screening dose, L. donovani n = 2): 41%"
